Source: patent publication US20040043055A1 (AJINOMOTO CO. INC., priority 2002, published 2004)

How the values were obtained:
[1] = Example 2: body weight, epididymal fat and abdominal fats after 6 weeks of high fat diet containing L-glutamine; type: in vivo, C57BL/6J mice; conditions: high fat diet containing 3.6% or 6.0% of L-glutamine
Protocol: Forty of male C57BL/6J mice, age 5 weeks, were used herein. […] After 6 weeks of the diet feedings, body weight and epididymal fat weight were measured.

[2] = Example 1: liver glycogen content after starvation in week 16; type: in vivo, C57BL/6J mice; conditions: 24 h starvation, L-glutamine plus exercise, FIG. 5
Protocol: The results of glycogen contents in the liver after starvation were the same trends as plasma insulin concentrations (FIG. 5).
(§1) Fifty male C57BL/6J mice, 9 weeks old, were used herein. […] The experiment was conducted for 16 weeks. The mice exercised on a treadmill at moderate intensity (at 4.0 m/min) for 30 minutes a day, 5 days a week. It is known that oxygen consumption (VO2) strongly correlates with exercise intensity. However, VO2 reaches the plateau at a certain point as exercise intensity increases, which is defined as maximum oxygen consumption (VO2max). Percentage of maximum oxygen consumption (% VO2max) is one of the common ways to indicate the exercise intensity. According to Schefer V. and Talan M. I. (Exp. Gerontol. 31:387 (1996)), a running speed of 3-4 m/min which was the same intensity of exercise used herein produced a VO2 equivalent to 54-58% of the VO2max in adult C57BL/6J mice. In 16 weeks of the experiment, plasma and liver samples were obtained after overnight starvation.

[3] = Solubility limit of L-glutamine in liquid product; type: physicochemical
[4] = Example 1: fasting plasma insulin concentration in week 16; type: in vivo, C57BL/6J mice; conditions: FIG. 4
Protocol: as §1

[5] = Example 1: body weight of mice on high fat diet containing L-glutamine, with or without treadmill exercise; type: in vivo, C57BL/6J mice
Protocol: as §1
Relative body weight to the LF group in week 5, 10, and 16 are shown in FIGS. 1, 2, and 3, respectively.
Applying to a human, assuming a life span of 70 years, 10 weeks and 4 months for mice correspond to 7 and 12 years for a human, respectively.

For NC(=O)CC[C@H](N)C(=O)O [L-glutamine], which “weights of abdominal fats” value [1] is on record?
Its value is “decreased in a dose-dependent manner”.

And the “weights of epididymal fat” value ([1]; FIG. 7)?
The value was “decreased in a dose-dependent manner”.

And the “rates of body weight gain” value ([1]; no exercise, FIG. 6)?
Its value is “reduced by L-glutamine administrations in a dose-dependent manner”.

And the “remaining glycogen content in the liver after starvation” value [2]?
Its value is “the lowest”.

What about the solubility limit ([3]; 0° C.) of the same molecule?
Its solubility limit is 8.3 g per 473 milliliters.

What about the solubility limit ([3]; 18° C.) of the same molecule?
Its solubility limit is 12.3 g per 473 milliliters.

What about the solubility limit ([3]; 30° C.) of the same molecule?
The solubility limit was 22.7 g per 473 milliliters.

What about the plasma insulin concentrations ([4]; L-glutamine administration alone, high fat feeding) of the same molecule?
Its plasma insulin concentrations is “reduced plasma insulin concentrations”.

And the plasma insulin concentrations ([4]; combination of L-glutamine administration and exercise)?
The plasma insulin concentrations was “the lowest and was close to that of LF group”.

And the “body weight gain by high fat feeding” value ([5]; week 5, exercise groups, 6.0% L-glutamine plus exercise (6Q+EX) vs HF+EX, FIG. 1)?
The value was “prevented considerably”.

And the “rate of body weight gain” value ([5]; week 5, non-exercise groups, high fat diet containing 6.0% of L-glutamine (6Q) vs HF, FIG. 1)?
The value was “did not reduce the rate of body weight gain”.

And the “synergistic effect of L-glutamine and exercise on body weight gain” value ([5]; week 10, 6Q+EX, FIG. 2)?
The value was “synergistic effect lasted for 10 weeks”.

What about the “combined effects on body weight” value ([5]; week 16, 6Q+EX compared to HF+EX, FIG. 3) of the same molecule?
Its value is “combined effects disappeared in week 16, although lower body weight was still observed”.
